Results from ChEMBL document CHEMBL1201862, “PubChem BioAssay data set” (2004).
Activity calls are given as the source filed them.

Key:
[1] = insulin promoter down-regulators in MIN6 cells, imaging, high-content screening, mouse beta cells (AID 1628); assay type: functional
[2] = cells; assay type: functional, cell-based
[3] = HeLa cell cytotoxicity, dose response, cytotoxicity control for MgcRacGAP inhibitor project (AID 624300); assay type: functional
[4] = molecular target: Induced myeloid leukemia cell differentiation protein Mcl-1 (Homo sapiens, UniProt Q07820); assay type: functional
[5] = molecular target: T1, Rac GTPase-activating protein 1 (Homo sapiens, UniProt Q9H0H5); assay: MgcRacGAP GTPase-activating activity inhibitors, confirmation, biochemical, ADP Hunter fluorescence, primary and confirmatory (AID 624330); assay type: functional
T1 sequence (Q9H0H5 whole entry): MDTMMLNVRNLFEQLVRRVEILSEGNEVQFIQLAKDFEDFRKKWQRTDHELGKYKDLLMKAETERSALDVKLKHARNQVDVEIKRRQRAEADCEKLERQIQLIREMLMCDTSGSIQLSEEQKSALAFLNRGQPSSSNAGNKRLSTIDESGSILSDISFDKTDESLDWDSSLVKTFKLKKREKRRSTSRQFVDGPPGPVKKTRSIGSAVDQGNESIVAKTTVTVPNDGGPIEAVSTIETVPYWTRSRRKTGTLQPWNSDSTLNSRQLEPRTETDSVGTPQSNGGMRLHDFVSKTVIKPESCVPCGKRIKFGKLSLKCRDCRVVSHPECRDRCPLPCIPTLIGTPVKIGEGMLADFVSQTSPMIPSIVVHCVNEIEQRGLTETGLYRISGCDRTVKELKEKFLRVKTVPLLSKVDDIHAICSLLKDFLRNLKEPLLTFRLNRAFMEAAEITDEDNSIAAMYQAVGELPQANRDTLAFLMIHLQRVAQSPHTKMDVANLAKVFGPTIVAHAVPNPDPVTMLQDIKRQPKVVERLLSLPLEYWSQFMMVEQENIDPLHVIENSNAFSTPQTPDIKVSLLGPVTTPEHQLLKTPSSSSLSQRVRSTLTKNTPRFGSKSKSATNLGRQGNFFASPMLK

[6] = NIH-3T3 fibroblast cytotoxicity, dose response, cytotoxicity control, cell-based, fluorescence, Alamar Blue, secondary assay (AID 2327); assay type: functional;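 also: NIH-3T3 mouse fibroblasts cultured with fluconazole at 8 µg/mL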
[7] = cytotoxicity in MIN6 insulinoma cells, dose response, cytotoxicity control, cell-based, mouse insulinoma (AID 2122); assay type: functional;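 also: confirmatory high-throughput counterscreen run to flag cytotoxic compounds; mouse MIN-6 beta cells carrying an insulin promoter eGFP reporter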
[8] = molecular target: Transitional endoplasmic reticulum ATPase (Homo sapiens, UniProt P55072, C522A); assay: C522A mutant p97 ATPase inhibitors, dose response, counter-screen for p97 inhibitor project, biochemical, luminescence (AID 1544)
[9] = molecular target: T2, Caspase-6 (Homo sapiens, UniProt P55212); assay: human caspase-6 inhibitors, dose response, biochemical, VEID-R110 fluorescence, cherry-pick (AID 720632)
T2 sequence (P55212 whole entry): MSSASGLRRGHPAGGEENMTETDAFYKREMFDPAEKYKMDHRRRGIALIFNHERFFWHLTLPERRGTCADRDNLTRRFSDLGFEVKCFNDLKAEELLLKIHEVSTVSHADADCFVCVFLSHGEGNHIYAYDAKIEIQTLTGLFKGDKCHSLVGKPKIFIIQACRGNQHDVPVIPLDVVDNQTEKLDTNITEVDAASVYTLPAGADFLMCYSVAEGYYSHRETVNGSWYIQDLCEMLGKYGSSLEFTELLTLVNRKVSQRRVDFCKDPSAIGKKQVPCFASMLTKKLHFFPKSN

[10] = cells; assay type: functional, cell-based; remark: listed apart in the source
[11] = molecular target: T3, Trace amine-associated receptor 1 (Homo sapiens, UniProt Q96RJ0); assay: Fluorescence-based cell-based high throughput dose response assay to identify agonists of the human trace amine associated receptor 1 (TAAR1).; assay type: functional
T3 sequence (Q96RJ0 whole entry): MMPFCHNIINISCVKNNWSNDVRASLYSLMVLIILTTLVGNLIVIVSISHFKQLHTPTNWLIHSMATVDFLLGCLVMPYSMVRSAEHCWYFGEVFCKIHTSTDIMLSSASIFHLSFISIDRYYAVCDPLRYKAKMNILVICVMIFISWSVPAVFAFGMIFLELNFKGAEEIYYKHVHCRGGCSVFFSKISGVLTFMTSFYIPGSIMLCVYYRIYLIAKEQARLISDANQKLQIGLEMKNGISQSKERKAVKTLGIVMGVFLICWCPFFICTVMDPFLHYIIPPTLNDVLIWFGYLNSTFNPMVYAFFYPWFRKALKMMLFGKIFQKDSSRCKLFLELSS

[12] = molecular target: Transitional endoplasmic reticulum ATPase (Homo sapiens, UniProt P55072); assay: p97 ATPase inhibitors, dose response, biochemical (AID 1534)
[13] = molecular target: T3, Trace amine-associated receptor 1; assay: Counterscreen for agonists of the human trace amine associated receptor 1 (hTAAR1): Fluorescence-based cell-based high throughput dose response assay to identify hTAAR1 agonist that also desensitize TAAR1 receptor response.; assay type: functional
[14] = test system: Vero; assay: Vero E6 cell cytotoxicity, SAR follow-up, cytotoxicity control for West Nile virus antiviral project, synthesized analogs (AID 2244); assay type: functional; settings: Chlorocebus sabaeus
[15] = test system: Vero; assay: cytotoxicity of synthesized analogs in Vero 76, SAR follow-up, cytotoxicity control for West Nile virus antiviral project, Vero 76 cells (AID 2414); assay type: functional, Chlorocebus sabaeus; settings: Chlorocebus sabaeus, Vero
[16] = molecular target: DNA repair and recombination protein RAD54-like (Homo sapiens, UniProt Q92698); assay: inhibitors of human RAD54 branch migration, confirmation, biochemical, fluorescence, cherry-picked samples, dose series (AID 651657); assay type: functional
[17] = molecular target: T4, Ubiquitin-conjugating enzyme E2 N (Homo sapiens, UniProt P61088); assay type: functional;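 also: Dose-response confirmation in a TR-FRET assay detecting UBC13-driven polyubiquitin chain formation, inhibition measured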
T4 sequence (P61088 whole entry): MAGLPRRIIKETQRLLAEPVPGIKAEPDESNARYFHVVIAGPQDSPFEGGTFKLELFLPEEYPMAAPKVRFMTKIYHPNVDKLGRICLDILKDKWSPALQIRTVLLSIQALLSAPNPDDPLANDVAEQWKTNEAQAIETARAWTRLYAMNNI

[18] = test system: Vero; assay: cytotoxicity of synthesized analogs in Vero cells, SAR follow-up, cytotoxicity control for West Nile virus antiviral project, cell-based, set II (AID 2402); assay type: functional, Chlorocebus sabaeus; settings: Chlorocebus sabaeus, Vero
[19] = A Cell Based Assay for the Identification of Probe candidate Compounds with Anti- Venezuelan Equine Encephalitis virus. [Related pubchem assays: 2409, 2419, 1621, 2238, 2405, 2024, 2065, 2402, 2414, 1635, 1650, 2244 ]; assay type: functional
[20] = A High Throughput Confirmatory Assay used to Identify Novel Compounds that Inhibit Mycobacterium Tuberculosis in the absence of Glycerol.; assay type: functional
[21] = molecular target: Ion channel NompC (Danio rerio, UniProt Q7T1G6); assay: Fluorescence counterscreen assay for TRPML3 agonists: dose response cell-based high-throughput screening assay to identify agonists of the transient receptor potential channel N1 (TRPN1). [Related pubchem assays: 1526, 1424, 1448 ]; assay type: functional
[22] = molecular target: Mucolipin-3 (Homo sapiens, UniProt Q8TDD5); assay: Dose response cell-based high-throughput screening assay for agonists of the transient receptor potential channel ML3 (TRPML3). [Related pubchem assays: 1526, 1424, 1448 ]; assay type: functional
[23] = molecular target: Estrogen receptor beta (Homo sapiens, UniProt Q92731);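 also: recombinant ER-beta bound to coactivator SRC1 peptide in presence of estradiol agonist; inhibitors block coactivator peptide binding and lower the FRET signal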
[24] = Luminescence Cell-Based Dose Response HTS to Identify Activators of Luciferase Translation or Activity in H4 […] Cells. [Related pubchem assays: 1829 (Project Summary), 1814 (Primary HTS)]; assay type: functional
[25] = Luminescence Cell-Based Dose Response to Identify Activators of Luciferase Translation or Activity in H4-C Neuroglioblastoma Cells. [Related pubchem assays: 1829 (Project Summary), 1814 (Primary HTS)]; assay type: functional
[26] = Luminescence Cell-Based Dose Response to Identify Activators of 5'UTR Stem-Loop Driven Prion Protein mRNA Translation in H4-C Neuroglioblastoma Cells. [Related pubchem assays: 1829 (Project Summary), 1814 (Primary HTS)]; assay type: functional
[27] = Luminescence Cell-Based Dose Confirmation to Identify Activators of 5'UTR Stem-Loop Driven Alpha-Synuclein mRNA Translation in H4 Neuroglioblastoma Cells. [Related pubchem assays: 1829 (Project Summary), 1814 (Primary HTS)]; assay type: functional
[28] = A cytotoxicity screen of small molecule inhibitors of the PhoP region in Salmonella typhi identified in the primary screen. [Related pubchem assays: 1850, 1864, 1985 ]; assay type: functional
[29] = inhibitors of intracellular T. cruzi replication, confirmation, NIH3T3 host cells, beta-gal luminescence (AID 2044); assay type: functional, cell-based;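 also: intracellular parasites grown in NIH/3T3 mouse fibroblasts as host cells; luminescent beta-galactosidase reporter signal from transgenic T. cruzi replicating inside host cells; inhibitors lower the luminescence signal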
[30] = cytotoxicity toward NIH3T3 fibroblasts, dose response, counter-screen, cell-based, ATP luminescence, mouse fibroblasts (AID 2010); assay type: functional;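 also: cells exposed to compound for about 90 hours before reading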
[31] = cells
[32] = molecular target: T5, Aminopeptidase N (Plasmodium falciparum FcB1/Columbia, UniProt O96935); assay: P. falciparum M1AAP inhibitors, biochemical, fluorogenic H-Leu-NHMec substrate, 1536-well (AID 1445); set-up: species or system Plasmodium falciparum 3D7, 3D7
T5 sequence (O96935 whole entry): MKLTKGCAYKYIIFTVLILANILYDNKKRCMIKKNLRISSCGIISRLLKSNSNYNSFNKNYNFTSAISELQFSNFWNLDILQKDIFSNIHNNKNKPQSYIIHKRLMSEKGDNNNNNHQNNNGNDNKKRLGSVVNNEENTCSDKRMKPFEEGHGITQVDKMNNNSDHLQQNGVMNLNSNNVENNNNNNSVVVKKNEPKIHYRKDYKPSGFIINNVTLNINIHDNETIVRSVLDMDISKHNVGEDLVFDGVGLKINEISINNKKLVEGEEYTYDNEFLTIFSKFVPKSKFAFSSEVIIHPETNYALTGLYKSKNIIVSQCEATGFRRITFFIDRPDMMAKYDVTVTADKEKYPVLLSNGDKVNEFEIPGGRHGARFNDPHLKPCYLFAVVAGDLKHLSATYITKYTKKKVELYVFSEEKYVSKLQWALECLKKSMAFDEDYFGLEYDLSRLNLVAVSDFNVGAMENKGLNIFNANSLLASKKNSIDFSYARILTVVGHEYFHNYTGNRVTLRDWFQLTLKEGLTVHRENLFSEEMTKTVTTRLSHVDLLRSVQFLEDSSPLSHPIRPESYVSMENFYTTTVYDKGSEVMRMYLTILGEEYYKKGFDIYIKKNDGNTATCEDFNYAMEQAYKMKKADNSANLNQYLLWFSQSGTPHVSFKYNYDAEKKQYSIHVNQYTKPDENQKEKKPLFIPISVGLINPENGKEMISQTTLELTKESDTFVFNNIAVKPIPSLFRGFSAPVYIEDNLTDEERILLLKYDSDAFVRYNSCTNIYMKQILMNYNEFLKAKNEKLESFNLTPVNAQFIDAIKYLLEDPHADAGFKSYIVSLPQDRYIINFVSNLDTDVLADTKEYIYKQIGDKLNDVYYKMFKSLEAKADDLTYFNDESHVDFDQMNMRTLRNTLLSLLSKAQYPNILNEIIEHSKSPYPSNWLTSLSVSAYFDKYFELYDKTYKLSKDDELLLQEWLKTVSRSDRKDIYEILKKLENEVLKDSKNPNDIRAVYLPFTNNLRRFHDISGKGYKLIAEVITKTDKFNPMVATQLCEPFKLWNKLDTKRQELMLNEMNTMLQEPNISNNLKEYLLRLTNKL

[33] = molecular target: Estrogen receptor (Homo sapiens, UniProt P03372);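 also: potency for inhibiting coactivator peptide recruitment to the receptor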
Estrogen receptor, sequence (P03372 whole entry): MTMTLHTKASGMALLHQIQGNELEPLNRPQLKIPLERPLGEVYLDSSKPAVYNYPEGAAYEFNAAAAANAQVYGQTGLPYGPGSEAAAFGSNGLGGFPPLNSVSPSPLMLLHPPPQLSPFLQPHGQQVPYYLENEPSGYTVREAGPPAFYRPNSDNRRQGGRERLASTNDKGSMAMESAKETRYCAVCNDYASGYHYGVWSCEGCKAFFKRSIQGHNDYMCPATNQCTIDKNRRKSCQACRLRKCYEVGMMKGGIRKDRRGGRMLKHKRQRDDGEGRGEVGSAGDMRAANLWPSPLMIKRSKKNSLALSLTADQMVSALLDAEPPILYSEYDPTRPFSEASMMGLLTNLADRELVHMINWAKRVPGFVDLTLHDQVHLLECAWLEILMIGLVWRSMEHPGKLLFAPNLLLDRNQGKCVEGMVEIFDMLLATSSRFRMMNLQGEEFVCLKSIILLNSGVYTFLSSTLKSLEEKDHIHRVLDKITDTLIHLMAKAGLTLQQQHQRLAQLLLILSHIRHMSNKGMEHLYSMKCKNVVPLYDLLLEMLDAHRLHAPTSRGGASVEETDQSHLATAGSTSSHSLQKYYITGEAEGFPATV

Mucolipin-3, sequence (Q8TDD5 whole entry): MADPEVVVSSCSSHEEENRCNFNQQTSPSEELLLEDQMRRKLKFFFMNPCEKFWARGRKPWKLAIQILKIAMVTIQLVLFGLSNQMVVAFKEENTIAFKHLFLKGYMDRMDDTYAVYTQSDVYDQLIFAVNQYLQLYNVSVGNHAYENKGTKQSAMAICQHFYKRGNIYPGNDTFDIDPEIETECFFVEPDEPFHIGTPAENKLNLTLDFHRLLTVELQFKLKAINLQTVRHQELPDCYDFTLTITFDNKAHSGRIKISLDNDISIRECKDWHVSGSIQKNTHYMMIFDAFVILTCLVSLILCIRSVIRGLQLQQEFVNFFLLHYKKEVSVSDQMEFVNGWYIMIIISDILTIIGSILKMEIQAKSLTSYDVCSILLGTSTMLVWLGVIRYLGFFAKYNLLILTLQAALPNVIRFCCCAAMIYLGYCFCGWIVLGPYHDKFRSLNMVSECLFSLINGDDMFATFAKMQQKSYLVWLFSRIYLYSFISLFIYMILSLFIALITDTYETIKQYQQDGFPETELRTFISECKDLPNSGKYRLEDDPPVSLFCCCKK
Transitional endoplasmic reticulum ATPase (Homo sapiens, UniProt P55072, C522A), sequence (P55072 2-806 C522A limits assumed): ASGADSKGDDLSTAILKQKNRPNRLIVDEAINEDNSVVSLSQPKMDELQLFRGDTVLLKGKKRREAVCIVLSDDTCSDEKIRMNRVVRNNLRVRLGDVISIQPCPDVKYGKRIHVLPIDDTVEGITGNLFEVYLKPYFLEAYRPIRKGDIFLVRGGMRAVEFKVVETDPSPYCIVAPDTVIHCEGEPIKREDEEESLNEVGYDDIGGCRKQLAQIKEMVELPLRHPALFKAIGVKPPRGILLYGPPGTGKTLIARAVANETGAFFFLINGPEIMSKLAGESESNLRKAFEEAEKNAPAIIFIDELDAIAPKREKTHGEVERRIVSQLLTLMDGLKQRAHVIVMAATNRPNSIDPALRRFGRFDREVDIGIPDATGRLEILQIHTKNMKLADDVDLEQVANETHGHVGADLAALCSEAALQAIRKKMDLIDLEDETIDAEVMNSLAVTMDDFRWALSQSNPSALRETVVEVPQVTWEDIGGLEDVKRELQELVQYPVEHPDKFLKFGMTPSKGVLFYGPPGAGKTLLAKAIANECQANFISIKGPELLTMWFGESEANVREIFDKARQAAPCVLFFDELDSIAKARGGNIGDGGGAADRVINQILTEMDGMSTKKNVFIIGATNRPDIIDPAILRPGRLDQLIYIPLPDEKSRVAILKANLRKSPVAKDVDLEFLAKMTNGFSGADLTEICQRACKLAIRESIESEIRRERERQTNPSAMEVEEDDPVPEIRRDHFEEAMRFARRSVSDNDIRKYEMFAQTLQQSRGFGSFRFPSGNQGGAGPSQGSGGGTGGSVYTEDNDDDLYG
Ion channel NompC, sequence (Q7T1G6 whole entry): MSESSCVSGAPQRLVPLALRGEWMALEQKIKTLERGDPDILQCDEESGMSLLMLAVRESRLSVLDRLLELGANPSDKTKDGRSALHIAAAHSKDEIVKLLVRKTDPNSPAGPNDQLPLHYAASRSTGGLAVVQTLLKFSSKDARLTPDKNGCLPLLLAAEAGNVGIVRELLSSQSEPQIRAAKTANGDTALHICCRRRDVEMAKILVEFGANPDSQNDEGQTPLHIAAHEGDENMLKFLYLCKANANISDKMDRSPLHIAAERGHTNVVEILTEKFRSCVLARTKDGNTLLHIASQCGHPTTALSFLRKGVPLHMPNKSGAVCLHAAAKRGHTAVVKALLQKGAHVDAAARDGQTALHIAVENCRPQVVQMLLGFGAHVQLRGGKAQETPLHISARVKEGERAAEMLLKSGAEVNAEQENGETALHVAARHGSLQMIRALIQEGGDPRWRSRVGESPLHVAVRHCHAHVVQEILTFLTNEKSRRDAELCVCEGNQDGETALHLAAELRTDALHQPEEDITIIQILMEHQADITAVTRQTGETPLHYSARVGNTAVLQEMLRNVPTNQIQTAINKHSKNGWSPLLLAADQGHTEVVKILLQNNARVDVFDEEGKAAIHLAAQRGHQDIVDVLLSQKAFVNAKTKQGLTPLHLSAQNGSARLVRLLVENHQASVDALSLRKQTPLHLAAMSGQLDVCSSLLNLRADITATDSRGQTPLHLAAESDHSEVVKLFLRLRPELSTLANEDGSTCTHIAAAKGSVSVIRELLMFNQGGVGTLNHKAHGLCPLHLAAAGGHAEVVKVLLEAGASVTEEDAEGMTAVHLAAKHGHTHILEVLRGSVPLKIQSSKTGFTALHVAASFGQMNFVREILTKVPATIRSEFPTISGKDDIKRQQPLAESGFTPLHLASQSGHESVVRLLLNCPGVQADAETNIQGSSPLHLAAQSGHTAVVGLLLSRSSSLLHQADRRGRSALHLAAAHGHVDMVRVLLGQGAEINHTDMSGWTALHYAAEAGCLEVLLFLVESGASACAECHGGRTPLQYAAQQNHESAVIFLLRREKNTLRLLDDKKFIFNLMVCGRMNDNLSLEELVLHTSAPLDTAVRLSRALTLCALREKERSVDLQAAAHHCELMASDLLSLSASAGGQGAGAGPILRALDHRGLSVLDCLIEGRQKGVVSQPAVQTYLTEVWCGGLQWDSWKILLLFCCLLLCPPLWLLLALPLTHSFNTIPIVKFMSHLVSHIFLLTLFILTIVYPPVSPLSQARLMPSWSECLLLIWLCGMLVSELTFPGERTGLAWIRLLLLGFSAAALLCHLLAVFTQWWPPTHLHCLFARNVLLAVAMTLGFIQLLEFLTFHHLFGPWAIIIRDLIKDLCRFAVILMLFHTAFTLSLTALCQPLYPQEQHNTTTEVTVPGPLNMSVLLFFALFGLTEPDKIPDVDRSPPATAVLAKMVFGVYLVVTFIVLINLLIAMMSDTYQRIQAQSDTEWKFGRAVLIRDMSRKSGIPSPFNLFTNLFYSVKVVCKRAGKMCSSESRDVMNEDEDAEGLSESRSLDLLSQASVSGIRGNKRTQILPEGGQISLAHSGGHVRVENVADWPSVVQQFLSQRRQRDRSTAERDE
Transitional endoplasmic reticulum ATPase (Homo sapiens, UniProt P55072), sequence (P55072 whole entry): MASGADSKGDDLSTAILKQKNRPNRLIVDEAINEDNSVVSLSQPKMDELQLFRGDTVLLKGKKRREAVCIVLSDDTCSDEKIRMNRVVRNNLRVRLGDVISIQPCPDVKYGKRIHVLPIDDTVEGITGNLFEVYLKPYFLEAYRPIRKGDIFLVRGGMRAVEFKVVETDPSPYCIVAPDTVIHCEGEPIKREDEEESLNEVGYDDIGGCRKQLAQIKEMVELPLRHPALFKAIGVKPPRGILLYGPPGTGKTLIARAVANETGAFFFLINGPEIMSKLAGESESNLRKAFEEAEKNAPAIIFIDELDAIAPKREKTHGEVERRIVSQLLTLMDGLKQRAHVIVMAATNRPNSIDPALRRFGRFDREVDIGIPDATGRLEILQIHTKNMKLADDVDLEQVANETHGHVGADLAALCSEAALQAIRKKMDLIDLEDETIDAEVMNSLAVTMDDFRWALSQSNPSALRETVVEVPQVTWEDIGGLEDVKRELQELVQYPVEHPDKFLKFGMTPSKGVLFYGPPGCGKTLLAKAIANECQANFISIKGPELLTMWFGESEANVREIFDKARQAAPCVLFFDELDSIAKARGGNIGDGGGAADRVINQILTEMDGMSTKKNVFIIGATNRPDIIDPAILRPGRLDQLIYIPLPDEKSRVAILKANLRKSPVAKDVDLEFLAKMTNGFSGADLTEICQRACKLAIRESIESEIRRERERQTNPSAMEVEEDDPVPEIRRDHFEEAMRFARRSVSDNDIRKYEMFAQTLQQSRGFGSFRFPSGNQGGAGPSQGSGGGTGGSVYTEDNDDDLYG
Estrogen receptor beta, sequence (Q92731 whole entry): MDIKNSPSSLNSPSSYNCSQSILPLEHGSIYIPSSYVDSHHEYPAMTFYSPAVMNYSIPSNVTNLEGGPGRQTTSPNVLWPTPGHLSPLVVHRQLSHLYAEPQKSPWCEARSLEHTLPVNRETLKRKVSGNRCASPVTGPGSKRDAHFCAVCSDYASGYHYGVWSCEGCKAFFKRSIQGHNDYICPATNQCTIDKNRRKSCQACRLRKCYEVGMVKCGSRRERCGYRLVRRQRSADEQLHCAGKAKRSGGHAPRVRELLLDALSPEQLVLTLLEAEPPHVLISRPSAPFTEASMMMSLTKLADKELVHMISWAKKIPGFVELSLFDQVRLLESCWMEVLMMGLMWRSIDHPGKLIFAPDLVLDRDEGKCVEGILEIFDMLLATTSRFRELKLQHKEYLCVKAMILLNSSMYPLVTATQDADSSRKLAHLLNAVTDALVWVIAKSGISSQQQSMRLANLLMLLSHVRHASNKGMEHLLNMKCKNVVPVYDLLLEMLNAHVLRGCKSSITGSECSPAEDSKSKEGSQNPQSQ

SMILES: Oc1ccc(/C=N/Nc2ccnc3cc(Cl)ccc23)cc1O
- IC50 [1]: 3.02 µM (active)
- EC50 [2]: > 29.9 µM (inactive)
- CC50 [3]: 43.5 µM (active)
- IC50 [4]: 4.73 µM (active)
- IC50 [5]: 30 µM (active)
- EC50 [6]: 7.32 µM (active)
- IC50 [7]: 6.19 µM (active)
- IC50 [8]: > 50 µM (not active)
- AC50 [9]: 1.61 µM (active)
- IC50 [10]: > 29.9 µM (inactive)
- EC50 [11]: 0.498 µM (active)
- IC50 [12]: 36.5 µM (not active)
- IC50 [13]: 2.47 µM (active)

SMILES: Cc1cccc2c1-c1sc(C(=O)NCCCN3CCCC(C)C3)cc1CO2 (stereo not drawn)
- CC50 [14]: 4.45 µM (active)
- CC50 [15]: 19.4 µM (active)
- AC50 [16]: 90.1 µM (active)
- IC50 [17]: > 20 µM (inactive)
- CC50 [18]: 6.26 µM (active)
- IC50 [19]: 6 µM (active)

SMILES: Cc1ccc(NC(=O)c2sccc2-n2cccc2)c(C)c1
- IC50 [20]: > 100 µM (active)

SMILES: COc1cc(S(=O)(=O)N2CCCCCC2)ccc1Cl
- EC50 [21]: > 29.9 µM (not active)
- EC50 [22]: 1.9 µM (active)

SMILES: COc1ccc(N2CC(C(=O)O)CC2=O)cc1 (stereo not drawn)
- IC50 [23]: > 50 µM (not active)

SMILES: COc1ccc(-c2ccc(-c3nnn(CC(C)=O)n3)cc2)cc1
- EC50 [24]: < 0.1 µM (inconclusive)
- EC50 [25]: 0.257 µM (active)
- EC50 [26]: 0.521 µM (active)
- EC50 [27]: 0.364 µM (active)

SMILES: COc1ccc(-c2cnc(NCc3cc4c(cc3[N+](=O)[O-])OCO4)n2C)cc1
- EC50 [28]: > 50 µM (active)

SMILES: O=S1(=O)CCC(/N=C/c2ccc(-c3ccc(Cl)cc3)o2)C1 (stereo not drawn)
- IC50 [20]: > 100 µM (active)

SMILES: CCN(CC)C(=O)CC1(c2ccccc2OC)CCOC(C(C)C)C1 (stereo not drawn)
- EC50 [21]: > 29.9 µM (not active)
- EC50 [22]: 6.96 µM (active)

SMILES: CSc1nsc(N/N=C/c2ccc3c(c2)OCO3)c1C#N
- EC50 [24]: < 0.1 µM (inconclusive)
- EC50 [25]: 0.303 µM (active)
- EC50 [26]: 0.314 µM (active)
- EC50 [27]: 0.415 µM (active)

SMILES: CSC1=NSC2=NC(=O)/C(=C\c3c(C)[nH]c4ccccc34)C(=N)N12
- IC50 [8]: > 50 µM (not active)
- IC50 [12]: 21.7 µM (not active)

SMILES: Cc1ccc2c(CN3CCN(CCO)CC3)cc(=O)oc2c1C
- EC50 [29]: < 0.1 µM (active)
- EC50 [30]: > 60 µM (not active)
- EC50 [31]: 0.019 µM (active)

SMILES: O=C1CC(c2ccco2)CC(O)=C1/C=N/c1cc(Cl)ccc1O (stereo not drawn)
- IC50 [32]: 5.58 µM (active)
- IC50 [33]: 43.8 µM (not active)

SMILES: O=C(N/N=C/c1c(Cl)nc2ccccn2c1=O)c1cccnc1
- EC50 [28]: > 50 µM (active)
